The source of these data is patent US11834414B2, “1-methyl-4-[(4-phenylphenyl)sulfonylmethyl]cyclohexyanol and 1-methyl-4-[[4-(2-pyridyl)phenyl]sulfonylmethyl]cyclohexanol compounds and their therapeutic use” (Modern Biosciences Limited, priority 2018, dated 2023).

In data set [1] the test system is Thp1 human monocytic cells. The data set can be described thus: Thp1 Monocyte ATP Production Assay. In kind it is cell-based. The settings on record: for IC50: Homo sapiens, THP-1, 24 h, Thp1 cells, 24 hour incubation, ATPLite, 9-point range 10 μM to 10 nM, mean of 2 independent experiments. In a few lines: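 Cells plated at 112500/well in glucose-free RPMI-1640 with 1% FBS and exposed to compound for 24 h at 37 °C/5% CO2. ATP quantified by luciferase luminescence (ATPlite) and expressed as % of control viability. IC50 from 4-parameter fit, mean of two experiments.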

Data set [2] can be described thus: Human hepatocyte stability. In kind it is in vitro ADME. The settings on record: human, pooled human hepatocytes, human hepatocytes, 1 μM, 60 minute incubation; for hepatocyte CLint at 1 μM: read-out: Human Clint (uL/min/million cells); for half-life at 1 μM: read-out: Human t1/2. An outline of the steps:
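Compounds (1 μM final, 0.1% DMSO, 0.9% acetonitrile) were incubated in duplicate with pooled rat or human hepatocytes at 37° C, sampled at 0–60 min and quenched with methanol. Remaining parent was measured by LC-MS/MS. Elimination rate constant came from the ln(concentration)–time slope, giving t1/2 and CLint scaled to hepatocyte concentration.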

The target in the next data set is CYP2D6 (Homo sapiens (Human), UniProt P10635). The data set can be described thus: Human Cytochrome P450 Inhibition Assay (Bactosomes). The note with it: recombinant Bactosomes, 10 minutes, 37° C. Format: in vitro ADME.
Data set [3] concerns collagen-induced arthritis in DBA/1j mice. Briefly: Mouse Collagen-Induced Arthritis. In kind it is in vivo. The settings on record: 10 mg/kg/day, once daily for 14 days, arthritic index vs control. The procedure: Seven- to eight-week-old male DBA/1j mice were used for all procedures. Animals were housed in groups of 10, and were maintained at 21° C.±2° C. on a 12-hour light/dark cycle with food and water ad libitum. Complete Freund's adjuvant (CFA) was prepared by emulsifying bovine type II collagen at 4 mg/mL with a 4 mg/mL suspension of Mycobacterium tuberculosis H37Ra in Incomplete Freund's Adjuvant (IFA) (0.85 mL paraffin oil and 0.15 mL mannide monooleate) in a 1:1 (v/v) ratio. All mice were immunised subcutaneously with 200 μg of bovine type II collagen in CFA. 21 days later, all mice were immunised subcutaneously with 100 μg of bovine type II collagen in IFA. The mice started to develop signs and symptoms of arthritis following the ‘booster’ immunisation.
For macroscopic assessment of arthritis, the following signs were monitored in each paw of each mouse three times per week and summed to generate the Arthritic Index (AI) (the maximum AI for one animal is 16): • 0=no visible effects of arthritis. • 1=oedema and/or erythema of 1 digit. • 2=oedema and/or erythema of 2 digits. • 3=oedema and/or erythema of more than 2 digits. • 4=severe arthritis of entire paw and digits.
Animals were sorted into treatment groups with a mean arthritic index of 2.5 and then dosed once daily for 14 days with compound: by oral gavage for test compounds, or by subcutaneous injection at a dose of 10 mg/kg for the positive control, etanercept. After completion of the experiment, the mice were sacrificed.
The data were analysed by generating an average of the arthritic index across each treatment group. The mean arthritic index was then compared to the arthritic index of control (untreated) animals using the following formula to generate a percentage inhibition of disease.

Structures are written as SMILES.

CYP2D6, sequence (P10635 whole entry): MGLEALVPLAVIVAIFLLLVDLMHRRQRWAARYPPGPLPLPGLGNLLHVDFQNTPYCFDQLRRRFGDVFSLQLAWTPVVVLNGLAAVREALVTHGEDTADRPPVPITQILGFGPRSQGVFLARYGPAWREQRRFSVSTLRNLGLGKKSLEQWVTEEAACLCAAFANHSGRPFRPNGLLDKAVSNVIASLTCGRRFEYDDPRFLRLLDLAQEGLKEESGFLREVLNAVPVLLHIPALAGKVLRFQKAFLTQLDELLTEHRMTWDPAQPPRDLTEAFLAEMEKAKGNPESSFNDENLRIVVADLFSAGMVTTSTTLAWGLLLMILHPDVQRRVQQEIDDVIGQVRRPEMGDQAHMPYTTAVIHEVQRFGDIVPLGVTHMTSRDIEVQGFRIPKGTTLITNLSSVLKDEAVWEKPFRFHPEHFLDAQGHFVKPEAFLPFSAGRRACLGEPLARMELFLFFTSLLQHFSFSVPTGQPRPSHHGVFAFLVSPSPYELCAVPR

As for `C[C@]1(O)CC[C@@H](CS(=O)(=O)c2ccc(-c3ccc(C#N)cc3F)cc2)CC1` [CHMSA-01-A, 2-fluoro-4′-(((cis-4-hydroxy-4-methylcyclohexyl)methyl)sulfonyl)-[1,1′-biphenyl]-4-carbonitrile], the midpoint of inhibition in data set [1], the IC50, lay at 700 nM. Further, in data set [2], the hepatocyte CLint at 1 μM came out at 3.7 µL/min/1e6 cells and the half-life at 1 μM is 5.91 h. Besides, on CYP2D6, the concentration for half-maximal inhibition (IC50) was over 50000 nM. Further, the “% inhibition of disease” value in data set [3] is recorded as 63%.
In turn, `C[C@]1(O)CC[C@@H](CS(=O)(=O)c2ccc(-c3ccc(C#N)cc3F)cc2C(F)(F)F)CC1` [CHMSA-02-A, 2-fluoro-4′-(((cis-4-hydroxy-4-methylcyclohexyl)methyl)sulfonyl)-3′-(trifluoromethyl)-[1,1′-biphenyl]-4-carbonitrile] displayed an IC50 in data set [1] of 100 nM. In data set [1] (compared to the reference compounds), the “potency in the Thp1 monocytic ATP assay (in words)” value was “excellent potency”. In data set [2], the hepatocyte CLint at 1 μM was under 3.3 µL/min/1e6 cells and the half-life at 1 μM is over 6.87 h. Moreover, the IC50 on CYP2D6 is over 50000 nM.
Consider `C[C@]1(O)CC[C@@H](CS(=O)(=O)c2ccc(-c3ncc(F)cc3F)c(F)c2)CC1` [CHMSA-03-A, cis-4-(((4-(3,5-difluoropyridin-2-yl)-3-fluorophenyl)sulfonyl)methyl)-1-methylcyclohexan-1-ol], for which the 50% inhibitory concentration (IC50) in data set [1] worked out at 700 nM. In data set [2], the hepatocyte CLint at 1 μM is under 3 µL/min/1e6 cells and the half-life at 1 μM was over 7.67 h. In addition, at CYP2D6, the IC50 is over 50000 nM. The “% inhibition of disease” value in data set [3] was found to be 62%.
The compound `C[C@]1(O)CC[C@H](NS(=O)(=O)c2ccc(-c3ccc(Cl)cc3C#N)cc2)CC1` [HMC-C-01-A, reference compound] returned a 50% inhibitory concentration (IC50) in data set [1] of 630 nM. In data set [2], the hepatocyte CLint at 1 μM was found to be 7.6 µL/min/1e6 cells and the half-life at 1 μM turned out to be 2.57 h. Also, at CYP2D6, the concentration for half-maximal inhibition (IC50) stood at 16600 nM. The “% inhibition of disease” value in data set [3] is listed as 40%.
